Data reported in patent US8658353B2, “Liver cell toxicity assay” (Corning Incorporated, priority 2008, dated 2014).
One block for each compound: values may come before it.

Columns and labels:
[1] = test system: primary liver cells; test: Label-free biosensor DMR assay, direct exposure of primary liver cells in biosensor sandwich culture; format: cell-based, Human; details: for DMR signal upon exposure to compound alone: all doses examined
Method: Collagen coating of the biosensor microplates was achieved by dispensing 10 μl collagen I (10 μg/ml) into each well, and followed by slow drying over night under controlled vacuum condition. This coating process takes advantage of slow self-assembly of collagen I, and results in an un-even coating consisting of a series of clusters of collagen I, thus providing microscale or nanoscale topology of ECM materials to liver cells to form Epic® 384well biosensor microplate collagen coated.
The RWG biosensor exploits its evanescent wave to measure ligand-induced DMR signals in cells. The evanescent wave extends into the cells and exponentially decays over distance, leading to a characteristic sensing volume of ˜150 nm, implying that any optical response mediated through the receptor activation only represents an average over the portion of the cell that the evanescent wave is sampling. The aggregation of many cellular events downstream the receptor activation determines the kinetics and amplitudes of a ligand-induced DMR.
(§1) The cell responses were recorded continuously.

[2] = test system: primary liver cells; test: Label-free biosensor DMR assay, 1 mM H2O2 as amplifying marker after compound pretreatment of primary liver cells; details: then 1 mM H2O2
[3] = test system: human lung cancer cell line A549; test: Label-free biosensor DMR assay of A549 cells exposed to 2 mM H2O2 with or without thrombin pretreatment; format: cell-based
Method: The kinetic responses were normalized at the time point 2 min before the addition of H2O2.
as §1
The large amplitude of the second N-DMR signal indicates the significant loss of local biomass density within the detection zone of the biosensor, indicative of cell apoptosis which leads to the release of cellular matters from the bottom portion of cells cultured on the biosensor surface. […] The onset time for the second N-DMR event is delayed by at least 15 min.

H2O2-induced DMR signal after pretreatment ([2]; rifampin pretreatment ~1-4 hrs): rifampin dose dependent N-DMR
Compound: CO[C@H]1/C=C/O[C@@]2(C)Oc3c(C)c(O)c4c(O)c(c(/C=N/N5CCN(C)CC5)c(O)c4c3C2=O)NC(=O)/C(C)=C\C=C\[C@H](C)[C@H](O)[C@@H](C)[C@@H](O)[C@@H](C)[C@H](OC(C)=O)[C@@H]1C [rifampin, Rifampin]
DMR signal upon exposure to compound alone ([1]; rifampin 625 nM up to 40000 nM): did not result in any significant loss in local biomass density or cause any significant DMR signal

DMR response ([1]; 5 mM H2O2): significant negative DMR (N-DMR) signal
onset time for the N-DMR signal ([1]; after treatment with 5 mM H2O2): around 30 min
Compound: OO [H2O2, hydrogen peroxide]
DMR response (change in local biomass) ([1]; 1 mM H2O2): did not trigger any significant change in local biomass
DMR signal of A549 cells ([3]; 2 mM H2O2, no thrombin pretreatment): complicated DMR signal, consisting of four phases

Compound: C[S+]([O-])c1ccc(-c2nc(-c3ccncc3)c(-c3ccc(F)cc3)[nH]2)cc1 (centres unmarked) [SB203580]
DMR signal upon exposure to compound alone ([1]; 625 nanomolar up to 10000 nanomolar): did not result in any significant DMR signal
H2O2-induced DMR signal after pretreatment ([2]; high doses of SB203580, pretreatment ~1-4 hrs): responded to 1 mM H2O2 exposure with a N-DMR

Compound: thrombin
delay of onset time for the second N-DMR event ([3]; thrombin pretreatment 1 to 16 unit/ml, then 2 mM H2O2): at least 15 min
potency to alter the H2O2 response, based on amplitudes of the rapid P-DMR event ([3]; thrombin pretreatment 1 hr, then 2 mM H2O2, said to correspond to EC50 for endogenous PAR1 activation): ~4 unit/ml
effect on H2O2-induced A549 apoptosis ([3]; thrombin pretreatment, then 2 mM H2O2): protective of H2O2-induced A549 apoptosis
